In ChEMBL document CHEMBL1201861, “Genomics of Drug Sensitity in Cancer screening data, Wellcome Trust Sanger Institute”:
Counter-ions that a name gives are not always drawn.

How the values were obtained:
Assay in all cases: cells
NCI-H716 = format: functional, cell-based, Homo sapiens; conditions: Homo sapiens, NCI-H716;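 also: growth inhibition of human NCI-H716 cells, measured by a cell viability assay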
Description: SANGER: Inhibition of human NCI-H716 cell growth in a cell viability assay.

RPMI-2650 = format: functional, cell-based, Homo sapiens; conditions: Homo sapiens, RPMI-2650
Description: SANGER: Inhibition of human RPMI-2650 cell growth in a cell viability assay.

HCC1937 = format: functional, cell-based, Homo sapiens; conditions: Homo sapiens, HCC1937;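 also: growth inhibition measured with a cell viability read-out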
Description: SANGER: Inhibition of human HCC1937 cell growth in a cell viability assay.

NCI-H2009 = format: functional, cell-based, Homo sapiens; conditions: Homo sapiens, NCI-H2009;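 also: cell viability assay measuring inhibition of NCI-H2009 cell growth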
Description: SANGER: Inhibition of human NCI-H2009 cell growth in a cell viability assay.

JIYOYE = format: functional, cell-based, Homo sapiens; conditions: Homo sapiens, JIYOYE
Description: SANGER: Inhibition of human JiyoyeP-2003 cell growth in a cell viability assay.

UMUC3 = format: functional, cell-based, Homo sapiens; conditions: Homo sapiens, UMUC3;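 also: growth inhibition of human UM-UC-3 cells, read out with a cell viability assay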
Description: SANGER: Inhibition of human UM-UC-3 cell growth in a cell viability assay.

BPH-1 = format: functional, cell-based, Homo sapiens; conditions: Homo sapiens, BPH-1;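 also: cell viability assay measuring growth inhibition of human BPH-1 cells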
Description: SANGER: Inhibition of human BPH-1 cell growth in a cell viability assay.

HTC-C3 = format: functional, cell-based, Homo sapiens; conditions: Homo sapiens, HTC-C3;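 also: inhibition of cell growth, read out with a cell viability assay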
Description: SANGER: Inhibition of human HTC-C3 cell growth in a cell viability assay.

T84 = format: functional, cell-based, Homo sapiens; conditions: Homo sapiens, T84;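 also: growth inhibition measured with a cell viability readout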
Description: SANGER: Inhibition of human T84 cell growth in a cell viability assay.

PANC-08-13 = format: functional, cell-based, Homo sapiens; conditions: Homo sapiens, PANC-08-13;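 also: cell growth inhibition, measured with a cell viability assay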
Description: SANGER: Inhibition of human PANC-08-13 cell growth in a cell viability assay.

KMS-12-PE = format: functional, cell-based, Homo sapiens; conditions: Homo sapiens, KMS-12-PE;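 also: growth inhibition of human KMS-12-PE cells, measured with a cell viability assay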
Description: SANGER: Inhibition of human KMS-12-PE cell growth in a cell viability assay.

23132-87 = format: functional, cell-based, Homo sapiens; conditions: Homo sapiens
Description: SANGER: Inhibition of human 23132-87 cell growth in a cell viability assay.

MKN-1 = format: functional, cell-based, Homo sapiens; conditions: Homo sapiens, MKN-1;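 also: growth inhibition of human MKN1 cells, read out by a cell viability measurement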
Description: SANGER: Inhibition of human MKN1 cell growth in a cell viability assay.

NCI-H441 = format: functional, cell-based, Homo sapiens; conditions: Homo sapiens, NCI-H441;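 also: growth inhibition of NCI-H441 cells, read out with a cell viability assay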
Description: SANGER: Inhibition of human NCI-H441 cell growth in a cell viability assay.

A2780 = format: functional, cell-based, Homo sapiens; conditions: Homo sapiens, A2780;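 also: growth inhibition of A2780 cells, read out with a cell viability assay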
Description: SANGER: Inhibition of human A2780 cell growth in a cell viability assay.

VM-CUB-1 = format: functional, cell-based, Homo sapiens; conditions: Homo sapiens, VM-CUB-1;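 also: cell viability assay measuring growth inhibition of the human VM-CUB-1 cell line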
Description: SANGER: Inhibition of human VM-CUB-1 cell growth in a cell viability assay.

RL = format: functional, cell-based, Homo sapiens; conditions: Homo sapiens, RL
Description: SANGER: Inhibition of human RL cell growth in a cell viability assay.

T98G = format: functional, cell-based, Homo sapiens; conditions: Homo sapiens, T98G;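 also: growth inhibition of T98G cells, read out by a cell viability assay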
Description: SANGER: Inhibition of human T98G cell growth in a cell viability assay.

UACC-62 = format: functional, cell-based, Homo sapiens; conditions: Homo sapiens, UACC-62;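 also: growth inhibition of human UACC-62 cells, read out by a cell viability assay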
Description: SANGER: Inhibition of human UACC-62 cell growth in a cell viability assay.

MEL-JUSO = format: functional, cell-based, Homo sapiens; conditions: Homo sapiens, MEL-JUSO;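 also: growth inhibition of human MEL-JUSO cells, read out with a cell viability assay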
Description: SANGER: Inhibition of human MEL-JUSO cell growth in a cell viability assay.

CHP-212 = format: functional, cell-based, Homo sapiens; conditions: Homo sapiens, CHP-212
Description: SANGER: Inhibition of human CHP-212 cell growth in a cell viability assay.

HT1197 = format: functional, cell-based, Homo sapiens, HT-1197; conditions: Homo sapiens, HT1197
Description: SANGER: Inhibition of human HT-1197 cell growth in a cell viability assay.

SW756 = format: functional, cell-based, Homo sapiens; conditions: Homo sapiens, SW756;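 also: growth inhibition of human SW756 cells, read out with a cell viability assay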
Description: SANGER: Inhibition of human SW756 cell growth in a cell viability assay.

GMS-10 = format: functional, cell-based, Homo sapiens; conditions: Homo sapiens, GMS-10;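 also: growth inhibition of GMS-10 cells, read out as cell viability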
Description: SANGER: Inhibition of human GMS-10 cell growth in a cell viability assay.

KU-19-19 = format: functional, cell-based, Homo sapiens; conditions: Homo sapiens, KU-19-19
Description: SANGER: Inhibition of human KU-19-19 cell growth in a cell viability assay.

SK-LU-1 = format: functional, cell-based, Homo sapiens; conditions: Homo sapiens, SK-LU-1;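 also: cell viability assay measuring growth inhibition of human SK-LU-1 cells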
Description: SANGER: Inhibition of human SK-LU-1 cell growth in a cell viability assay.

CaR-1 = format: functional, cell-based, Homo sapiens; conditions: Homo sapiens, CaR-1;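 also: growth inhibition of human CaR-1 cancer cells, read out with a cell viability assay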
Description: SANGER: Inhibition of human CaR-1 cell growth in a cell viability assay.

SBC-5 = format: functional, cell-based, Homo sapiens; conditions: Homo sapiens, SBC-5;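 also: cell viability assay read-out, IC50 is the concentration that inhibits growth of the cells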
Description: SANGER: Inhibition of human SBC-5 cell growth in a cell viability assay.

MC-IXC = format: functional, cell-based, Homo sapiens; conditions: Homo sapiens, MC-IXC;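 also: growth inhibition of MC-IXC cells, read out with a cell viability assay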
Description: SANGER: Inhibition of human MC-IXC cell growth in a cell viability assay.

D-542MG = format: functional, cell-based, Homo sapiens; conditions: Homo sapiens, D-542MG
Description: SANGER: Inhibition of human D-542MG cell growth in a cell viability assay.

SK-MEL-30 = format: functional, cell-based, Homo sapiens; conditions: Homo sapiens, SK-MEL-30;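 also: growth inhibition of SK-MEL-30 cells, determined with a cell viability assay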
Description: SANGER: Inhibition of human SK-MEL-30 cell growth in a cell viability assay.

KYSE-410 = format: functional, cell-based, Homo sapiens; conditions: Homo sapiens, KYSE-410;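 also: growth inhibition of KYSE-410 cells, measured through a cell viability readout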
Description: SANGER: Inhibition of human KYSE-410 cell growth in a cell viability assay.

SW48 = format: functional, cell-based, Homo sapiens; conditions: Homo sapiens, SW48;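 also: growth inhibition of SW48 cells, read out with a cell viability assay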
Description: SANGER: Inhibition of human SW48 cell growth in a cell viability assay.

G-401 = format: functional, cell-based, Homo sapiens; conditions: Homo sapiens, G-401
Description: SANGER: Inhibition of human G-401 cell growth in a cell viability assay.

CA46 = format: functional, cell-based, Homo sapiens; conditions: Homo sapiens, CA46;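 also: growth inhibition of human CA46 cells, read out by a cell viability assay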
Description: SANGER: Inhibition of human CA46 cell growth in a cell viability assay.

CAL-120 = format: functional, cell-based, Homo sapiens; conditions: Homo sapiens, CAL-120;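 also: cell growth inhibition, read out as cell viability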
Description: SANGER: Inhibition of human CAL-120 cell growth in a cell viability assay.

OAW-28 = format: functional, cell-based, Homo sapiens; conditions: Homo sapiens, OAW-28;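 also: growth inhibition of OAW-28 cells, read out with a cell viability assay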
Description: SANGER: Inhibition of human OAW-28 cell growth in a cell viability assay.

NCI-H1522 = format: functional, cell-based, Homo sapiens; conditions: Homo sapiens, NCI-H1522;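 also: growth inhibition of NCI-H1522 cells, read out with a cell viability assay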
Description: SANGER: Inhibition of human NCI-H1522 cell growth in a cell viability assay.

ASPC1 = format: functional, cell-based, Homo sapiens; conditions: Homo sapiens, ASPC1;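 also: growth inhibition of AsPC-1 cells, read out with a cell viability assay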
Description: SANGER: Inhibition of human AsPC-1 cell growth in a cell viability assay.

UO-31 = format: functional, cell-based, Homo sapiens; conditions: Homo sapiens, UO-31;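 also: cell viability assay measuring inhibition of cell growth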
Description: SANGER: Inhibition of human U031 cell growth in a cell viability assay.

647-V = format: functional, cell-based, Homo sapiens; conditions: Homo sapiens, 647-V;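 also: growth inhibition of 647-V cells, read out with a cell viability assay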
Description: SANGER: Inhibition of human 647-V cell growth in a cell viability assay.

NCI-H322M = format: functional, cell-based, Homo sapiens; conditions: Homo sapiens, NCI-H322M;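 also: cell viability assay measuring inhibition of growth of human NCI-H322M cells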
Description: SANGER: Inhibition of human NCI-H322M cell growth in a cell viability assay.

NCI-H1792 = format: functional, cell-based, Homo sapiens; conditions: Homo sapiens, NCI-H1792;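 also: growth inhibition of human NCI-H1792 cells, read out as cell viability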
Description: SANGER: Inhibition of human NCI-H1792 cell growth in a cell viability assay.

MeWo = format: functional, cell-based, Homo sapiens; conditions: Homo sapiens, MeWo;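 also: growth inhibition of MeWo cells, determined by a cell viability readout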
Description: SANGER: Inhibition of human Mewo cell growth in a cell viability assay.

C=C(c1ccc(C(=O)O)cc1)c1cc2c(cc1C)C(C)(C)CCC2(C)C [BEXAROTENE]
IC50 (NCI-H716): > 8000 nM | IC50 (RPMI-2650): > 8000 nM | IC50 (HCC1937): > 8000 nM | IC50 (NCI-H2009): > 8000 nM | IC50 (JIYOYE): > 8000 nM | IC50 (UMUC3): > 8000 nM | IC50 (BPH-1): > 8000 nM | IC50 (HTC-C3): > 8000 nM | IC50 (T84): > 8000 nM | IC50 (PANC-08-13): > 8000 nM | IC50 (KMS-12-PE): > 8000 nM | IC50 (23132-87): > 8000 nM | IC50 (MKN-1): > 8000 nM | IC50 (NCI-H441): > 8000 nM | IC50 (A2780): > 8000 nM | IC50 (VM-CUB-1): > 8000 nM | IC50 (RL): > 8000 nM | IC50 (T98G): > 8000 nM | IC50 (UACC-62): > 8000 nM | IC50 (MEL-JUSO): > 8000 nM | IC50 (CHP-212): > 8000 nM | IC50 (HT1197): > 8000 nM | IC50 (SW756): > 8000 nM | IC50 (GMS-10): > 8000 nM | IC50 (KU-19-19): > 8000 nM | IC50 (SK-LU-1): > 8000 nM | IC50 (CaR-1): > 8000 nM | IC50 (SBC-5): > 8000 nM | IC50 (MC-IXC): 7970 nM | IC50 (D-542MG): > 8000 nM | IC50 (SK-MEL-30): > 8000 nM | IC50 (KYSE-410): > 8000 nM | IC50 (SW48): > 8000 nM | IC50 (G-401): > 8000 nM | IC50 (CA46): > 8000 nM | IC50 (CAL-120): > 8000 nM | IC50 (OAW-28): > 8000 nM | IC50 (NCI-H1522): > 8000 nM | IC50 (ASPC1): > 8000 nM | IC50 (UO-31): > 8000 nM | IC50 (647-V): > 8000 nM | IC50 (NCI-H322M): > 8000 nM | IC50 (NCI-H1792): > 8000 nM | IC50 (MeWo): > 8000 nM

COc1cccc2c1C(=O)c1c(O)c3c(c(O)c1C2=O)C[C@@](O)(C(=O)CO)C[C@@H]3O[C@H]1C[C@H](N)[C@H](O)[C@H](C)O1 [DOXORUBICIN]
IC50 (NCI-H716): > 1020 nM | IC50 (RPMI-2650): 13.7 nM | IC50 (HCC1937): 116 nM | IC50 (NCI-H2009): 51.8 nM | IC50 (JIYOYE): 138 nM | IC50 (UMUC3): 86 nM | IC50 (BPH-1): 22.1 nM | IC50 (HTC-C3): 704 nM | IC50 (T84): 57.1 nM | IC50 (PANC-08-13): > 1020 nM | IC50 (KMS-12-PE): 418 nM | IC50 (23132-87): 15.4 nM | IC50 (MKN-1): 9.86 nM | IC50 (NCI-H441): 28.4 nM | IC50 (A2780): 68.8 nM | IC50 (VM-CUB-1): 75.4 nM | IC50 (RL): > 1020 nM | IC50 (T98G): > 1020 nM | IC50 (UACC-62): > 1020 nM | IC50 (MEL-JUSO): 14.5 nM | IC50 (CHP-212): 35 nM | IC50 (HT1197): 213 nM | IC50 (SW756): 275 nM | IC50 (GMS-10): > 1020 nM | IC50 (KU-19-19): > 1020 nM | IC50 (SK-LU-1): 12.5 nM | IC50 (CaR-1): > 1020 nM | IC50 (SBC-5): 20.7 nM | IC50 (MC-IXC): 67.9 nM | IC50 (D-542MG): > 1020 nM | IC50 (SK-MEL-30): 35.6 nM | IC50 (KYSE-410): 103 nM | IC50 (SW48): 49.7 nM | IC50 (G-401): 30.2 nM | IC50 (CA46): 137 nM | IC50 (CAL-120): 778 nM | IC50 (OAW-28): 179 nM | IC50 (NCI-H1522): > 1020 nM | IC50 (ASPC1): 855 nM | IC50 (UO-31): 354 nM | IC50 (647-V): 18.8 nM | IC50 (NCI-H322M): > 1020 nM | IC50 (NCI-H1792): 572 nM | IC50 (MeWo): > 1020 nM

COC1=CC(c2cc3ccccc3[nH]2)=N/C1=C\c1[nH]c(C)cc1C [OBATOCLAX MESYLATE]
IC50 (NCI-H716): 1690 nM | IC50 (RPMI-2650): 23 nM | IC50 (HCC1937): 464 nM | IC50 (NCI-H2009): 347 nM | IC50 (JIYOYE): 203 nM | IC50 (UMUC3): 291 nM | IC50 (BPH-1): 563 nM | IC50 (HTC-C3): 104 nM | IC50 (T84): 212 nM | IC50 (PANC-08-13): 1340 nM | IC50 (KMS-12-PE): 5350 nM | IC50 (23132-87): 828 nM | IC50 (MKN-1): 304 nM | IC50 (NCI-H441): 191 nM | IC50 (A2780): 20.8 nM | IC50 (VM-CUB-1): 713 nM | IC50 (RL): > 16000 nM | IC50 (T98G): 5070 nM | IC50 (UACC-62): 302 nM | IC50 (MEL-JUSO): 24.7 nM | IC50 (CHP-212): 81 nM | IC50 (HT1197): 395 nM | IC50 (SW756): 38.2 nM | IC50 (GMS-10): 2580 nM | IC50 (KU-19-19): 646 nM | IC50 (SK-LU-1): 134 nM | IC50 (CaR-1): 3980 nM | IC50 (SBC-5): 212 nM | IC50 (MC-IXC): 345 nM | IC50 (D-542MG): 170 nM | IC50 (SK-MEL-30): < 62.5 nM | IC50 (KYSE-410): 98 nM | IC50 (SW48): 773 nM | IC50 (G-401): 30.9 nM | IC50 (CA46): 65.4 nM | IC50 (CAL-120): 296 nM | IC50 (OAW-28): 202 nM | IC50 (NCI-H1522): 2020 nM | IC50 (ASPC1): 7490 nM | IC50 (UO-31): 814 nM | IC50 (647-V): 104 nM | IC50 (NCI-H322M): > 16000 nM | IC50 (NCI-H1792): 377 nM | IC50 (MeWo): 4960 nM
